From patent US10758466B2, “Powder-based cosmetic compositions containing pelargonic acid esters” (Novamont S.p.A., priority 2015, dated 2020)

Assays:
[1] = UV filters dispersion: dispersibility of solid UV filter in ester oils; format: physicochemical; design: key: D=homogeneous dispersion; S=sediment deposit; details: 25° C.; for Filters dispersion t0 1%: 1% TiO2, storage 0 hours; for Filters dispersion t24 1%: 1% TiO2, storage 24 hours; for Filters dispersion t0 10%: 10% TiO2, storage 0 hours; for Filters dispersion t24 10%: 10% TiO2, storage 24 hours
Experimental: The dispersibility of a solid UV filter in different ester oils was tested using Titania (TiO2, commercially available as Titanio Biossido Anatasio from A.C.E.F.). Various ratios of solute/solvent (1% and 10% TiO2) were prepared under stiffing at 70° C. for 30 minutes. The dispersions were then observed after a storage period of 0 hours (t0) and 24 hours (t24) at ambient temperature (25° C.) to check for the formation of any sediment deposit. Results for each ester are shown in the table below (D=homogeneous dispersion; S=sediment deposit).

[2] = Pigments dispersion: wet point and flow point of ester oil; format: physicochemical; details: for Fp: amount of ester oil needed to reach the flow point; for Fp / Wp: grams per 100 g of pigment; for Wp: amount of ester oil needed to reach the wet point
Text: Black Iron Oxide particles (CI77499, commercially available as YPC335200 from Yipin) were dispersed in each of the ester oils of the present invention and in ester oil commonly used as cosmetic ingredients. Each sample of powder particles was wetted by the dropwise addition of one ester oil and then vigorously blended using a spatula until the wet point and the flow point were reached.
The wet point is defined as the minimum volume of dispersant solution to produce a soft coherent mass; the further minimum addition of dispersant solution to produce flow or falling off of the homogeneous mass from the vertical blade of a horizontally held spatula determines the flow point.
The amounts of dispersant solution (i.e. ester oil) needed to reach the wet point (Wp) and the flow point (Fp) were recorded and reported in the table below, expressed in grams per 100 g of pigment.

SMILES | Filters dispersion t0 1% [1] | Filters dispersion t24 1% [1] | Filters dispersion t0 10% [1] | Filters dispersion t24 10% [1] | Fp [2] [g] | Wp [2] [g] | less solvent required on the final composition ([2]; from Fp close to Wp, compared with commonly used ester oils)
CCCCCCCCC(=O)OCC(COC(=O)CCCCCCCC)OC(=O)CCCCCCCC [Glycerol tripelargonate] | D | D | D | S/D | 100.00 | 60.00 | about 30%
CCCCCCCCC(=O)OCC(COC(=O)CCCCCCCC)(COC(=O)CCCCCCCC)COC(=O)CCCCCCCC [Pentaerythritol tetrapelargonate] | D | D | D | D | 132.00 | 62.00 | –
CC(C)CCCCCCOC(=O)CCCCCC(C)C [Isononyl Isononanoate, reference compound] | D | S | D | S | 145.00 | 50.00 | –
CCCCCCCCC(=O)OCC(C)(C)COC(=O)CCCCCCCC [Neopentyl glycol dipelargonate] | D | S/D | D | S/D | 166.00 | 61.00 | –
